According to patent US20200087258A1, “INHIBITOR OF CITRATE TRANSPORTER AND THEIR USE IN THERAPY” (Eternygen GmbH, priority 2017, published 2020):
pIC50: −log10 of the molar value.

Tests used:
INDY [1] = biological target: T1, INDY (Homo sapiens, UniProt Q86YT5); assay: 14C-citrate uptake in HepG2 cells endogenously expressing INDY (NaCT); assay type: cell-based; settings: endogenous INDY
Procedure: The compound was obtained by screening of a library containing more than 50,000 lead-like compounds and fragments. The library was tested using a functional citrate uptake assay with HEK293 cells overexpressing recombinant human INDY. The following hit confirmation was conducted in the same assay system. To confirm the activity of selected compounds on the target INDY another cell assay was conducted. In this assay system citrate uptake was measured using HepG2 cells which endogenously express INDY. Furthermore selectivity of selected compounds was tested for two other transporters in different assay systems. The first transporter was the glutamate transporter GLT-1 tested in a glutamate uptake assays using HEK293 cells overexpressing recombinant human GLT-1. The second transporter was the glucose transporter GLUT1 tested in a glucose uptake assay using Huh-7 cells which endogenously express GLUT1. Compounds were considered to be selective with an at least 5-fold higher activity for INDY than for the other two transporters.
Cells were maintained in cell medium using cell culture grade flasks (CellSTACK Corning, 500 cm2 dishes or T175 depending on cell number). The selection antibiotic and G418 (800 μg/ml) was added during cultivation but not for seeding into assay plates. For splitting, cells were washed with PBS (w/o Ca2+, Mg2+, phenol red) and detached with Trypsin/EDTA. Throughout cultivation cells were kept sub-confluent. Detached cells (50,000 cells/well) were seeded in 96-well plates (white, clear bottom from Corning #655098) and incubated over night before usage in the assay. The following media were used. For HEK293 cells expressing INDY MEM (PAA)+10% FCS+1×P/S+2 mM L-Gln; for HEK293 cells expressing GLT-1 DMEM (Gibco)+10% FCS+400 µg/ml G418; for Huh7 cells DMEM (Gibco)+10% FCS+2 mM L-Gin (+1×P/S); for HepG2 cells MEM (PAA, Cat # E15-024)+10% FCS+2 mM L-Gin+1×NEAA+1 mM Na-Pyruvat
The following assay buffers for the particular uptake reaction were used. Citrate uptake buffer: 120 mM NaCl, 5.4 mM KCl, 0.8 mM MgSO4, 5 mM glucose, 1.8 mM CaCl2, 25 mM Hepes, 25 mM MES, pH 6.5. Glutamate uptake buffer: HBSS, 1 mM CaCl2, 1 mM MgCl2, 20 mM Hepes pH 7.4. Glucose uptake buffer: 25 mM Hepes+25 mM MES pH 7.4, 120 mM NaCl, 5.4 mM KCl, 1.8 mM CaCl2, 0.8 mM MgSO4.
INDY mediated citrate uptake was also determined in HepG2 cells. To determine the uptake of ^14C labelled citrate into cells, HepG2 cells endogenously expressing human NaCT were used. (Gopal et al. 2007 Am J Physiol Gastrointest Liver Physiol 292).
HepG2 cells were seeded into white clear-bottom 96-well plates (50,000/well) coated with collagen and incubated at 37° C. for 16-24 hours. After that plates were washed once with assay buffer using automated washing/LS 405 Selectors, BioTek ending with a buffer volume of 40 μl. Then 5 μl of compound solution in assay buffer was added and incubated for 5 min at 37° C. in cell incubator, HERA cell Heraeus. Afterwards 10 μl of substrate 14C-citrate (10 nM) were added and incubated for another 90 min at 37° C. in cell incubator, HERAcell. Then plates were washed 3× with 200 μl buffer and […] cell lysis induced by adding 50 μl ice-cold NaOH (100 mM). Plates were incubated for 25 min at RT on a plate shaker and afterwards 200 μl scintillation fluid was added and incubated for 15 min on a plate shaker at RT and for another 15 min without shaking at RT. Plates were measured using a TopCount system. As a positive control 5 mM citrate was applied. It is possible to use this assay also in analogy in a 384-well plate format.

INDY [2] = biological target: T1, INDY; assay: 14C-citrate uptake in HEK293 cells overexpressing recombinant human INDY (NaCT); assay type: cell-based; design: expressed in transfected cells; host or cells: HEK293
Outline: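 HEK293 cells overexpressing human NaCT, 50,000/well, preincubated 5-30 min at 37 °C with compound in pH 6.5 Na+ buffer. 14C-citrate ([…]) uptake then ran 20-90 min at 37 °C, followed by ice-cold washes, NaOH lysis and scintillation counting. 10 mM citrate served as positive control.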

T1 sequence (Q86YT5 whole entry, the tested form may be a part): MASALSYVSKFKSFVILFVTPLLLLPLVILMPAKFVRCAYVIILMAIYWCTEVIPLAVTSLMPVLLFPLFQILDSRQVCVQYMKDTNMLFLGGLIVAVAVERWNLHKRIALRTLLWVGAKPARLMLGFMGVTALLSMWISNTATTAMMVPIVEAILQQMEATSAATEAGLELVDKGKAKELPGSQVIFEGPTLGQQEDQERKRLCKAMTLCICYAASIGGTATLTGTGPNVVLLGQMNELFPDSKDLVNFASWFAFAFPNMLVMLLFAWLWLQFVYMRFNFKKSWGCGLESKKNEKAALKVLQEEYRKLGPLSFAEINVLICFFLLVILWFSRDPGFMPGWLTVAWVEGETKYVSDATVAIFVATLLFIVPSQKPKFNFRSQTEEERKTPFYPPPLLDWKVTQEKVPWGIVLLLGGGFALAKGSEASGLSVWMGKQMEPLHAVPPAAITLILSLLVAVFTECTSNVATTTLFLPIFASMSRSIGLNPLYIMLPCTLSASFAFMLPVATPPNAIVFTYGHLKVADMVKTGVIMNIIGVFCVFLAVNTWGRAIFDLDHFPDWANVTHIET

Q: With `O=C(NCc1ccccn1)C1CCN(S(=O)(=O)c2ccc(OC(F)(F)F)cc2)CC1` [Example 58, N-[(pyridin-2-yl)methyl]-1-[4-(trifluoromethoxy)benzenesulfonyl]piperidine-4-carboxamide] as the compound, how does the pIC50 (INDY [1]) read?
A: 5.57

Q: And the pIC50 (INDY [2])?
A: 5.19

Q: With `O=C(NCc1ccccc1F)C1CCN(S(=O)(=O)c2cccc(Cl)c2)CC1` [Example 59, 1-(3-chlorobenzenesulfonyl)-N-[(2-fluorophenyl)methyl]piperidine-4-carboxamide] as the compound, how does the pIC50 (INDY [1]) read?
A: 6.05

Q: And the pIC50 (INDY [2])?
A: 5.96

Q: Which results are given for `O=C(NCc1ccccn1)C1CCN(S(=O)(=O)c2cc(Cl)ccc2Cl)CC1` [Example 62, 1-(2,5-dichlorobenzenesulfonyl)-N-[(pyridin-2-yl)methyl]piperidine-4-carboxamide]?
A: pIC50 (INDY [1]): 5.34; pIC50 (INDY [2]): 5.09

Q: How did the pIC50 (INDY [1]) turn out when `O=C(NCc1ccccn1)C1CCN(S(=O)(=O)c2ccc(Cl)c(Cl)c2)CC1` [Example 67, 1-(3,4-dichlorobenzenesulfonyl)-N-[(pyridin-2-yl)methyl]piperidine-4-carboxamide] was run?
A: 5.14

Q: What about the pIC50 (INDY [2]) of the same compound?
A: 4.74

Q: `O=C(NCc1ccccc1CO)C1CCN(S(=O)(=O)/C=C/c2ccccc2)CC1` [Example 69, N-{[2-(hydroxymethyl)phenyl]methyl}-1-[(E)-2-phenylethenesulfonyl]pipendine-4-carboxamide] was tested. Which pIC50 (INDY [1]) did it give?
A: 5.35

Q: What about the pIC50 (INDY [2]) of the same compound?
A: 4.93

Q: Which results are given for `O=C(NCc1ccccn1)C1CCN(S(=O)(=O)c2ccc(C(F)(F)F)cc2Cl)CC1` [Example 74, 1-[2-chloro-4-(trifluoromethyl)benzenesulfonyl]-N-[(pyridin-2-yl)methyl]piperidine-4-carboxamide]?
A: pIC50 (INDY [1]): 5.29; pIC50 (INDY [2]): 5.15

Q: Which results are given for `O=C(NCc1ccccn1)C1CCN(S(=O)(=O)c2cccc(C(F)(F)F)c2)CC1` [Example 75, N-[(pyridin-2-yl)methyl]-1-[3-(trifluoromethyl)benzenesulfonyl]pipendine-4-carboxamide]?
A: pIC50 (INDY [1]): 5.48; pIC50 (INDY [2]): 5.24

Q: With `O=C(NCc1ccccn1)C1CCN(S(=O)(=O)c2cc(F)cc(Cl)c2)CC1` [Example 78, 1-(3-chloro-5-fluorobenzenesulfonyl)-N-[(pyridin-2-yl)methyl]pipendine-4-carboxamide] as the compound, how does the pIC50 (INDY [1]) read?
A: 5.62

Q: What about the pIC50 (INDY [2]) of the same compound?
A: 5.31

Q: `O=C(NCc1ccccn1)C1CCN(S(=O)(=O)c2cc(F)cc(C(F)(F)F)c2)CC1` [Example 84, 1-[3-fluoro-5-(trifluoromethyl)benzenesulfonyl]-N-[(pyridin-2-yl)methyl]pipendine-4-carboxamide] was tested. Which pIC50 (INDY [1]) did it give?
A: 5.66

Q: What about the pIC50 (INDY [2]) of the same compound?
A: 5.37

Q: `O=C(NCc1ccccn1)C1CCN(S(=O)(=O)c2cccc(S(F)(F)(F)(F)F)c2)CC1` [Example 85, 1-[3-(pentafluoro-lambda6-sulfanyl)benzenesulfonyl]-N-[(pyridin-2-yl)methyl]pipendine-4-carboxamide] was tested. Which pIC50 (INDY [1]) did it give?
A: 5.52

Q: What about the pIC50 (INDY [2]) of the same compound?
A: 5.19

Q: With `O=C(NCc1ccccn1)C1CCN(S(=O)(=O)c2ccc(I)cc2)CC1` [Example 95, 1-(4-iodobenzenesulfonyl)-N-[(pyridin-2-yl)methyl]piperidine-4-carboxamide] as the compound, how does the pIC50 (INDY [1]) read?
A: 5.62

Q: What about the pIC50 (INDY [2]) of the same compound?
A: 5.26

Q: Which results are given for `O=C(NCc1ccccn1)C1CCN(S(=O)(=O)c2ccc(C3CC3)cc2)CC1` [Example 97, 1-(4-cyclopropylbenzenesulfonyl)-N-[(pyridin-2-yl)methyl]piperidine-4-carboxamide]?
A: pIC50 (INDY [1]): 5.42; pIC50 (INDY [2]): 5.04

Q: With `O=C(NCc1ccccn1)C1CCN(S(=O)(=O)c2ccc(CC(F)(F)F)cc2)CC1` [Example 99, N-[(pyridin-2-yl)methyl]-1-[4-(2,2,2-trifluoroethyl)benzenesulfonyl]piperidine-4-carboxamide] as the compound, how does the pIC50 (INDY [1]) read?
A: 5.49

Q: What about the pIC50 (INDY [2]) of the same compound?
A: 5.20

Q: What does the source list for `O=C(NCc1cccc(O)c1)C1CCN(S(=O)(=O)c2cc(Cl)cc(Cl)c2)CC1` [Example 114, 1-(3,5-dichlorobenzenesulfonyl)-N-[(3-hydroxyphenyl)methyl]piperidine-4-carboxamide]?
A: pIC50 (INDY [1]): 6.22; pIC50 (INDY [2]): 6.15

Q: What does the source list for `O=C(NCc1cccc(F)c1)C1CCN(S(=O)(=O)c2cc(Cl)cc(Cl)c2)CC1` [Example 115, 1-(3,5-dichlorobenzenesulfonyl)-N-[(3-fluorophenyl)methyl]piperidine-4-carboxamide]?
A: pIC50 (INDY [1]): 7.00; pIC50 (INDY [2]): 6.70

Q: `O=C(NCc1ccccn1)C1CCN(S(=O)(=O)c2cc(Cl)cc(C3COC3)c2)CC1` [Example 116, 1-[3-chloro-5-(oxetan-3-yl)benzenesulfonyl]-N-[(pyridin-2-yl)methyl]piperidine-4-carboxamide] was tested. Which pIC50 (INDY [1]) did it give?
A: 5.64

Q: And the pIC50 (INDY [2])?
A: 5.23

Q: How did the pIC50 (INDY [1]) turn out when `O=C(NCc1cccc(CO)c1)C1CCN(S(=O)(=O)c2cc(Cl)cc(Cl)c2)CC1` [Example 117, 1-(3,5-dichlorobenzenesulfonyl)-N-{[3-(hydroxymethyl)phenyl]methyl}piperidine-4-carboxamide] was run?
A: 6.30

Q: What about the pIC50 (INDY [2]) of the same compound?
A: 6.10

Q: Which results are given for `COC(=O)c1cccc(CNC(=O)C2CCN(S(=O)(=O)c3cc(Cl)cc(Cl)c3)CC2)c1` [Example 118, methyl 3-({[1-(3,5-dichlorobenzenesulfonyl)piperidin-4-yl]formamido}methyl)benzoate]?
A: pIC50 (INDY [1]): 5.40; pIC50 (INDY [2]): 5.24

Q: `O=C(NCc1ccccn1)C1CN(S(=O)(=O)c2cc(Cl)cc(Cl)c2)C1` [Example 120, 1-(3,5-dichlorobenzenesulfonyl)-N-[(pyridin-2-yl)methyl]azetidine-3-carboxamide] was tested. Which pIC50 (INDY [1]) did it give?
A: 5.55

Q: And the pIC50 (INDY [2])?
A: 5.12

Q: How did the pIC50 (INDY [1]) turn out when `O=C(NCc1ccc(O)cc1)C1CCN(S(=O)(=O)c2cc(Cl)cc(Cl)c2)CC1` [Example 123, 1-(3,5-dichlorobenzenesulfonyl)-N-[(4-hydroxyphenyl)methyl]piperidine-4-carboxamide] was run?
A: 5.89

Q: And the pIC50 (INDY [2])?
A: 5.70

Q: `Nc1ccc(CNC(=O)C2CCN(S(=O)(=O)c3cc(Cl)cc(Cl)c3)CC2)cc1` [Example 124, N-[(4-aminophenyl)methyl]-1-(3,5-dichlorobenzenesulfonyl)piperidine-4-carboxamide] was tested. Which pIC50 (INDY [1]) did it give?
A: 6.05

Q: What about the pIC50 (INDY [2]) of the same compound?
A: 5.74

Q: What does the source list for `O=C(NCc1ccccn1)C1CCN(S(=O)(=O)c2ccc(C3(C(F)(F)F)CC3)cc2)CC1` [Example 125, N-[(pyridin-2-yl)methyl]-1-{4-[1-(trifluoromethyl)cyclopropyl]benzenesulfonyl}piperidine-4-carboxamide]?
A: pIC50 (INDY [1]): 6.30; pIC50 (INDY [2]): 6.10

Q: With `O=C(NCc1ccccn1)C1CCN(S(=O)(=O)c2cc(Br)cc(C(F)(F)F)c2)CC1` [Example 126, 1-[3-bromo-5-(trifluoromethyl)benzenesulfonyl]-N-[(pyridin-2-yl)methyl]piperidine-4-carboxamide] as the compound, how does the pIC50 (INDY [1]) read?
A: 6.40

Q: And the pIC50 (INDY [2])?
A: 6.30

Q: With `O=C(NCc1ccccn1)C1CCN(S(=O)(=O)c2cc(C(F)(F)F)cc(C(F)(F)F)c2)CC1` [Example 127, 1-[3,5-bis(trifluoromethyl)benzenesulfonyl]-N-[(pyridin-2-yl)methyl]piperidine-4-carboxamide] as the compound, how does the pIC50 (INDY [1]) read?
A: 5.92

Q: And the pIC50 (INDY [2])?
A: 5.49

Q: How did the pIC50 (INDY [1]) turn out when `O=C(NCc1ccccn1)C1CCN(S(=O)(=O)c2ccc(C3CCCC3)cc2)CC1` [Example 129, 1-(4-cyclopentylbenzenesulfonyl)-N-[(pyridin-2-yl)methyl]piperidine-4-carboxamide] was run?
A: 5.13

Q: And the pIC50 (INDY [2])?
A: 5.80

Q: How did the pIC50 (INDY [1]) turn out when `O=C(NCc1ccccn1)C1CCN(S(=O)(=O)c2cc(Cl)cc(C(F)(F)F)c2)CC1` [Example 130, 1-[3-chloro-5-(trifluoromethyl)benzenesulfonyl]-N-[(pyridin-2-yl)methyl]piperidine-4-carboxamide] was run?
A: 6.30

Q: What about the pIC50 (INDY [2]) of the same compound?
A: 6.15
